From US20070219213A1, “Use of Adrenergic N-Phenylpiperazine Antagonists, Pahrmaceutical Compositions Containning Them, and Methods of Preparing Them” (priority 2004, published 2007)
Values joined by “and” are separate entries in the source; they are usually repeats but may differ in a detail not shown here. Identical values can stand only once.

Key:
[1] = target: T1, alpha 1D adrenoceptor (rat aorta) (Rattus norvegicus, UniProt P23944); assay: Vasoconstriction assay in rat aorta induced by norepinephrine; type: cell-based
T1 construct: from tissue; host or cells: rat aorta segments with endothelium
T1 sequence (P23944 1-561): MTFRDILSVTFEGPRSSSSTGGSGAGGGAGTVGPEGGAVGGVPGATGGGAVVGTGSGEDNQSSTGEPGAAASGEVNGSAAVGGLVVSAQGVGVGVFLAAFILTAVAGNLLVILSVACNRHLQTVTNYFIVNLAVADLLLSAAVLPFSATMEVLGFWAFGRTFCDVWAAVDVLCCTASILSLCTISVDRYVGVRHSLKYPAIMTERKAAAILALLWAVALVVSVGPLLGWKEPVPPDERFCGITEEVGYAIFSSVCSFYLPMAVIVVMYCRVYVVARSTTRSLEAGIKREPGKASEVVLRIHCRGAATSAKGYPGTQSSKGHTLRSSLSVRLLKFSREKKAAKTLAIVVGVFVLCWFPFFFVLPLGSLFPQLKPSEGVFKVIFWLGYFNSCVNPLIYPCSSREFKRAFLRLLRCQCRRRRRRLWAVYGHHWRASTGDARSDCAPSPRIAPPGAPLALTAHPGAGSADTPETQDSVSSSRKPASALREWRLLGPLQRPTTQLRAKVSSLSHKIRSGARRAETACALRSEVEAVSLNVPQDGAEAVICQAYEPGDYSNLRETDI
Protocol: Vasoconstriction Assay in Mouse Aorta Induced By Norepinephrine
Aorta segments with endothelium (3 mm), withdrawn from young male rats (250-300 g), were placed in containers containing physiologic solution (NaCl 122 mM, KCl 5 mM, NaHCO3 15 mM, glucose 11.5 mM, MgCl2 1.2 mM, CaCl2 1.25 mM and KH2PO4 1.2 mM), kept at 37° C. under aeration with a mixture of 95% of O2 and 5% of CO2, and submitted to a pre-charge of 5 mN for 60 minutes. During this period, eventual tension adjustments were performed until the stabilization in 0.5 g, always with renewal with physiologic solution. Then, vasoconstriction was induced by 60 mM KCl solution, in each ring, to verify the viability of the organ on the day of experiment. The preparation was submitted to the contraction with norepinephrine (5×10^−5 M) and, then the rings were washed to reach the basal line (0% of vasoconstriction). The procedure was repeated until the obtainment of a constant curve. Later, a curve, using increasing concentrations of norepinephrine (3×10^−8-5×10^−5 M), was performed for each ring, as a positive control. The segments were washed to reach the basal line (0% of vasoconstriction) and incubated with the test compounds, individually, for 30 minutes. A second norepinephrine curve was performed and obtained data compared to the first control curve. […] The aorta rings were used once for each compound.
Determination of the LASSBio 772 Antagonist Potency (pKB) on the Vasoconstriction of Rabbit or Rat Thoracic Aorta.

H1 receptors = target: T2, H1 receptors (Cavia porcellus, UniProt P31389); assay: Cobaio (guinea pig) trachea contraction induced by histamine; type: cell-based; conditions: histamine 100 microM, compound 3 nM-30 microM
T2 construct: from tissue; host or cells: guinea pig trachea strips
T2 sequence (P31389 whole entry): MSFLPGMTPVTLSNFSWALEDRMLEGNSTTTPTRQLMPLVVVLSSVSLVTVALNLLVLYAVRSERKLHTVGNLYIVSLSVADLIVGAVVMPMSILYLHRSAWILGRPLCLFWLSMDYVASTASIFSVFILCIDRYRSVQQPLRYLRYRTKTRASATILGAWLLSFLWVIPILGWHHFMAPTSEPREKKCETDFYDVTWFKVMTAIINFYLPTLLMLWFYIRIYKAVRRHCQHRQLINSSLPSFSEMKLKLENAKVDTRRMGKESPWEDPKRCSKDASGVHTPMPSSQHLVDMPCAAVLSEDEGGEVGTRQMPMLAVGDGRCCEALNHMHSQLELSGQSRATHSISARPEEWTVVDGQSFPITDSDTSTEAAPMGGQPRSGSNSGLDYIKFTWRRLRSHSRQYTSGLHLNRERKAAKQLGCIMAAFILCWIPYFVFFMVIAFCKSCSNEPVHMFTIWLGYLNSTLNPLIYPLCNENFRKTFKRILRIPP
From the text: Cobaios albinos from both sexes, weighing between 400 and 600 g were used in this experiment. The animals were sacrificed by cervical displacement and posterior bleed. Then, their tracheas were removed, kept in 5 microM indometacin added Krebs-Henseleit physiologic solution and oxygenated with carbogenic mixture (95% O2 and 5% CO2), proceeding the removal of the connective and adhered adipose tissue. From these tracheas were obtained segments with 4-6 rings, that are sectioned in the opposite side of the smooth musculature, originating strips used in the contractions assay (ARAKIDA et al., J. Pharmacol. Exper. Therap., 287: 633-639, 1998).
These strips were adapted in glass containers of 1.0 mL containing nutritious solution and continuous aeration with carbogenic mixture. The containers are maintained in a bath (Ugo Basile 4050) at the constant temperature of 37±0.50° C., mimicking thus physiologic terms in vitro. The trachea strips were connected to isometric force transducers (Ugo Basile 7011-4), submitted to a tension of 1 g and rested for 1 hour, changing the solution in 15 minute intervals, to obtain the balance to this tension.
After the period, the organ is treated with agonists that will induce contractions. […] The tissue viability was evaluated by contraction induction with histamine 100 microM or carbacol 10 microM. […]

[2] = Arterial pressure effects in anesthetized rabbits; type: in vivo; conditions: rabbit
Protocol: Animal and Homodynamic Measurements:
The experiments were performed with male rabbits weighing 3 kg, from the CECAL (Centro de Criação de Animais de Laboratório) at Fundação Oswaldo Cruz. The animals were anesthetized with sodium pentobarbital (40 mg/kg) in the ear marginal vein, and anesthesia maintenance was obtained with supplemental intravenous (i.v.) doses of 5 mg/kg as necessary. The […] were tracheomized, inserted with a polyethylene canule, and immobilized with pancuronium bromide (1 mg/kg, i.v.), with supplemental doses of 0.2 mg/kg for each hour of experiment and artificially ventilated with a mechanical fan (Rodent ventilator 7025, Ugo Basile) with a volume of 10 ml/kg and frequency from 40 to 50 incursions/min. The right femoral vein was catheterized for drug administration.
The arterial pressure was monitored through abdominal aorta catheter via the right femoral artery and connected to a quartz transductor Hewlett Packard (1290 A), which was connected to an arterial pressure processor and recorder Hewlett Packard (system 7754 with amplifier 8805 B).
The systolic (SAP) and diastolic (DAP) arterial pressures were obtained directly from the records and the average arterial pressure (AAP) was calculated by DAP's Sum with a third of the differential pressure [[…]]. The cardiac frequency was determined by counting the pressure waves, visualized with the speed increase of the recorder paper.
The cardiac debit (DC) was monitored using an electromagnetic probe, connected to a Skalar flowmeter model MDL 1401. After left thoraxatomy, between the second and third ribs, was made an incision in the pericardium and the heart was exposed to enable the visualization and dissection of the ascending aorta for installation of the electromagnetic probe. The systemic vascular resistance (SVR) was calculated as a quotient of the average arterial pressure by the cardiac debit, multiplied by a conversion factor 80 (SVR=AAP/DC×80) and expressed in dyn/seg/cm-5.
At the conclusion of the anesthetic-surgical procedures, a 15-minute period was allowed for stabilization of the homodynamic parameters. Before any pharmacological manipulation the average arterial pressure, cardiac frequency and cardiac debit measurements were obtained. These values were considered basal homodynamic values.
The results were expressed as average±standard deviation (E.P.M.) The administration effects of LASSBio 772 with regard to the basal values were analyzed through variance analysis (ANOVA) for repeated measurements. When a significant statistical difference was found in the test ANOVA, the test Newman-Keuls was used to locate the differences. The paired t test was used to analyze the phenylephrine pressure effects before and after the treatment with LASSBio 772B. Differences with p<0.05 were considered significant. All the calculations were done on the computer, using the statistic software Instat-2.0.
Arterial Pressure Effects of LASSBio 772 Administration: […]

COc1ccccc1N1CCN(CCc2ccc3c(c2)OCO3)CC1 [LASSBio 772, 1-(2-1,3-Benzodioxol-5-yl-ethyl)-4-(2-methoxy-phenyl)-piperazine]
selectivity index for alpha 1D in comparison to alpha 1B subtype [1]: ≥ 10000
Kb ([1]; pKB, rat aorta, α1D): 0.0132 nM and 0.0138 nM
affinity for alpha 1D subtype relative to BMY 7378 ([1]; rat aorta): ≥ 430 times
IC50 (H1 receptors): 309 nM
reduction of arterial pressure ([2]; 100 μg/kg i.v.): ~10%
average arterial pressure (AAP) ([2]; 100 μg/kg i.v., n=5): 79±4 mmHg
diastolic arterial pressure (DAP) ([2]; 100 μg/kg i.v., n=5): 71±4 mmHg
systolic arterial pressure (SAP) ([2]; 100 μg/kg i.v., n=5): 94±7 mmHg
hypotension ([2]; i.v.): without however causing significant clinically hypotension
dose from which a significant hypo-tensor response was induced ([2]; i.v., doses 1-100 μg/kg, versus basal values): ≥ 3 µg/kg
